What all share (type): cell-based, human
The test system of assay [1] is P-gp localization in KB-C2 cells. Briefly: Immunofluorescence assay of P-gp localization in KB-C2 cells. The settings on record: Figure 8B. The method, then: (§1) For immunofluorescence analysis, parental and drug-resistant cells were seeded in 24-well plates at 10,000–20,000 cells/well and incubated for 24 h. The cells were incubated with or without cyclopropyl quinazolinamine 22 or azide quinazolinamine 33 for 24 h, 48 h, and 72 h. Thereafter, cells were washed with PBS and fixed with 4% paraformaldehyde for 10 min at room temperature and then rinsed with PBS twice, followed by permeabilization with 1% Triton X-100 for 10 min at 4 °C. The cells were again washed twice with PBS, and then blocked with 6% BSA for 1 h at 37 °C. Fixed cells were incubated with monoclonal antibody against the BCRP protein (BXP 21) (Sigma-Aldrich, Inc., St. Louis, MO) (1:1000) or P-gp (F4) (Sigma-Aldrich, Inc., St. Louis, MO, USA) overnight at 4 °C, followed by two washes with PBS. The cells were then further incubated with Alexa flour 488 goat anti-mouse IgG (1:1000) (Abcam plc.) for 2 h at 37 °C. After the cells were washed twice with PBS, 4′,6-diamidino-2-phenylindole (DAPI) (2 µg/mL) was used for nuclear counterstaining. The immunofluorescence images were generated using a Nikon TE-2000S fluorescence microscope (Nikon Instruments Inc, Melville, NY, USA).

In the next assay the test system is H460 cells. Description: [3H]-mitoxantrone accumulation assay, H460. The following applies: parental H460 cells; compound 5 μM; Figure 6A. On the procedure: (§2) To determine the accumulation of drugs on H460, H460/MX20, KB-3-1, and KB-C2 cells, the cells ([…] cells/well) were seeded in the 24-well plates and incubated at 37 °C with 5% CO2 [17]. After 12 h of incubation, a test compound (5 µM) was added and the plates were incubated at 37 °C for 2 h. Cells were then incubated with 0.01 µM [^3H]-MX or [^3H]-paclitaxel-containing medium for an additional 2 h at 37 °C, with or without a test compound. The cells were washed twice with ice-cold phosphate-buffered saline (PBS), trypsinized and lysed at the end of incubation. The radioactivity was measured using the Packard TRICARB1 1900A liquid scintillation analyzer.

Assay [2] deals with P-gp protein in KB-C2 cells. Description: Western blot of P-gp expression in KB-C2 cells. The method, then:
(§3) Cells in T25 flask were washed with ice-cold PBS. Lysis buffer (100 µL) was added into T25 flask. Using a cell scraper, scrape adherent cells were scraped off the flask and the cell suspension was transferred into a microcentrifuge tube (1.5 mL). Cells were agitated for 20 min at 4 °C and cell lysate was centrifuged mixture at 4 °C for 20 min at 12,000 rpm. The supernatant (lysate) was used for the gel electrophoresis. Equal amounts of total cell lysates (20 µg protein) were resolved by sodium dodecyl sulfate polyacrylamide gel electrophoresis (SDS-PAGE) and electrophoretically transferred onto polyvinylidene fluoride (PVDF) membranes. After incubation in a blocking solution (5% milk) for 2 h at room temperature, the membranes were incubated overnight with primary monoclonal antibodies against GAPDH (GA1R) (Invitrogen, Carlsbad, CA, USA) at 1:1000 dilution of BCRP protein (BXP 21) (Sigma-Aldrich, Inc., St. Louis, MO, USA) (1:1000) or P-gp (F4) (Sigma-Aldrich, Inc., St. Louis, MO, USA) at 4 °C, and were further incubated with horseradish […] (HRP)-conjugated secondary antibody (Thermo Fisher Scientific Inc., Waltham, MA, USA) at 1:1000 dilution for 2 h at room temperature. The protein antibody complex was detected using an enhanced chemiluminescence detection system. The grayscale ratio was analyzed by ImageJ and normalized by the grayscale of the ABC protein divided by that of GAPDH.
In general terms: Immunoblotting shows a protein as a band on a membrane.

In a further assay the test system is KB-C2 cells. Description: [3H]-paclitaxel accumulation assay, KB-C2. The following applies: resistant cell line KB-C2; compound 5 μM; Figure 6B. On the procedure: as §2
The test system of a further assay is KB-3-1 cells. Briefly: [3H]-paclitaxel accumulation assay, KB-3-1. The settings on record: parental cells KB-3-1; compound 5 μM; Figure 6B. On the procedure:
as §2

The test system of assay [3] is BCRP localization in H460/MX20 cells. Briefly: Immunofluorescence assay of BCRP localization in H460/MX20 cells. The settings on record: 5 μM for 24, 48, and 72 h, Figure 8A,C. On the procedure: as §1
The test system of assay [4] is BCRP-overexpressing H460/MX20 cells. Briefly: [3H]-mitoxantrone accumulation assay, H460/MX20. The following applies: resistant H460/MX20 cells; compound 5 μM; Figure 6A. The method, then:
as §2

Assay [5] relates to P-gp-mediated multidrug-resistant cell line KB-C2. Description: MTT reversal assay with paclitaxel, KB-C2 cells. The following applies: Figure 5A. The method, then: The human lung cancer cell line H460, and its MX-selected derivative BCRP-overexpressing cell line, H460/MX20, were used in this study. The KB-C2 cell line was selected by colchicine (Alfa Aesar, Haverhill, MA, USA) (2 μg/mL) with human cervical carcinoma cell line KB-3-1.
Cytotoxicity tests and reversal experiments were performed using the 3-(4,5-dimethylthiazol-2-yl)-2,5-diphenyltetrazolium bromide (MTT) colorimetric assay. Cells were seeded evenly into 96-well plates. […] To determine the MDR reversal efficacy of the quinazolinamine derivatives, an anticancer drug (mitoxantrone, colchicine, paclitaxel or cisplatin) was added into the designated wells after 2 h pre-incubation with a quinazolinamine derivative or a positive control inhibitor at non-toxic concentrations. After 72 h of drug incubation, the MTT reagent (4 mg/mL) was added into the wells, and then the plates were incubated for an additional 4 h. Subsequently, the supernatant was discarded and 100 µL of dimethyl sulfoxide (DMSO) was added to dissolve the formazan crystals. Cell viability was determined by measuring the absorbance by using an accuSkan™ GO UV/Vis Microplate Spectrophotometer (Fisher Sci., Fair Lawn, NJ, USA) at a wavelength of 570 nm.
For orientation: Tetrazolium dyes change colour on reduction, which living cells bring about.

The test system of assay [6] is BCRP protein in H460/MX20 cells. Briefly: Western blot of BCRP expression in H460/MX20 cells. On the procedure:
as §3

For the compound `c1ccc2c(Nc3ccc(C4CC4)cc3)nc(-c3ccncc3)nc2c1` [Compound 22, N-(4-Cyclopropylphenyl)-2-(pyridin-4-yl)quinazolin-4-amine], the “P-gp fluorescence on the membranes” value in assay [1] (5 μM at 72 h) was “decreased slightly”; in assay [1] (5 μM for 24 and 48 h), “did not decrease significantly”. The accumulation of mitoxantrone entry is “slightly increase” in the assay on H460 cells and “increased the accumulation” in assay [4]. Besides, the “cytoplasmic P-gp expression level” value in assay [2] (KB-C2 cytoplasm fraction, Figure 9D) is “slightly increased”. Also, the “expression level of the P-gp protein on the membrane” value in [2] (KB-C2 membrane fraction, Figure 9C) is recorded as “slightly decreased”. Moreover, the P-gp protein expression result in [2] (KB-C2 total cell lysate, Figure 7B) is listed as “nor did it change the P-gp protein expression”. The accumulation of paclitaxel entry with KB-C2 cells is reported as “significantly increased”; with KB-3-1 cells it was “did not increase”. Besides, in assay [3], the “BCRP fluorescence on the membranes / intracellular localization of BCRP” value is on record as “decreased gradually”. Moreover, the sensitization to paclitaxel entry in assay [5] is given as “could sensitize KB-C2 cells”. Moreover, the “BCRP protein expression level in the cytoplasm” value in [6] (H460/MX20 cytoplasm fraction, Figure 9B) is listed as “increased”. For the same compound, the “expression level of BCRP protein on the membrane” value in [6] (H460/MX20 membrane fraction, Figure 9A) is on record as “decreased”. For the same compound, in [6] (H460/MX20 total cell lysate, Figure 7), the “expression level of BCRP protein” value is given as “did not change the expression level”.

(Values after publication PMC9953095, “Design, Synthesis and Biological Evaluation of Quinazolinamine Derivatives as Breast Cancer Resistance Protein and P-Glycoprotein Inhibitors with Improved Metabolic Stability” (Biomolecules, 2023).)
